Read-outs that look alike come from different tables or passages of the source. Blank lines part the entries; values can stand above or below the compound they belong to.
Test system: HIF-1-mediated transcription
Experiment: HIF-1-mediated transcription under hypoxia, LN229-HRE-Lux luciferase reporter assay
Format: cell-based, human
Conditions: Homo sapiens, LN229-HRE-Lux cells, hypoxia (1% O2)
Protocol: The synthesized analogues were evaluated for their potential to inhibit HIF-1-mediated transcription under hypoxia (1% O2) using a human glioma cell line LN229-HRE-Lux, which stably expresses a hypoxia-responsive luciferase reporter gene (Table 1-9). […] The compounds were tested in single (n=1) or multiple (n>1) independent experiments each carried out in quadruplicate.
LN229-HRE-luciferase human glioblastoma cells were used to perform the assay. […] 48-well plates were seeded with 3.10^4 cells per well and incubated under normoxic conditions for 24 h. Cells were then pre-treated with different concentrations of KCN-1 or its analogues for 1 h and then transferred to hypoxic conditions. After 24 h, media was aspirated, cells were lysed and reporter activity was measured in the lysate using Luciferase Assay System (Promega, Madison, Wis.) with 20/20^n Luminometer (Promega).

[1] = 24 h, Table 8, 24 h, results from single runs, read-out: IC50
[2] = 24 h, Table 9, results from single runs

Compound: CCCCS(=O)(=O)N(Cc1ccc2c(n1)C=CC(C)(C)O2)c1ccccc1 [Compound 26n, N-((2,2-Dimethyl-2H-pyrano[3,2-b]pyridin-6-yl)methyl)-N-phenylbutane-1-sulfonamide]
IC50 [1]: 5 µM

Compound: CC1(C)C=Cc2cc(CN(c3ccccc3)S(=O)(=O)c3ccc([N+](=O)[O-])cc3)ncc2O1 [Compound 36b, N-((2,2-Dimethyl-2H-pyrano[2,3-c]pyridin-6-yl)methyl)-4-nitro-N-phenylbenzenesulfonamide]
IC50 [2]: 1.8 µM | IC50 (24 h): 1.8 µM

Compound: CC(C)c1ccc(S(=O)(=O)N(Cc2cc3c(cn2)OC(C)(C)C=C3)C2CCCCC2)cc1 [Compound 36c, N-Cyclohexyl-N-((2,2-dimethyl-2H-pyrano[2,3-c]pyridin-6-yl)methyl)-4-isopropylbenzenesulfonamide]
IC50 [2]: 1.1 µM | IC50 (24 h): 1.08 µM

Compound: COc1ccc(S(=O)(=O)N(Cc2cc3c(cn2)OC(C)(C)C=C3)C2CCCCC2)cc1OC [Compound 36d, N-Cyclohexyl-N-((2,2-dimethyl-2H-pyrano[2,3-c]pyridin-6-yl)methyl)-3,4-dimethoxybenzenesulfonamide]
IC50 [2]: 5.8 µM

Compound: COc1ccc(S(=O)(=O)N(Cc2ccc3c(c2)C=CC(C)(C)O3)c2ccccc2)cc1OC [KCN-1, N-((2,2-dimethyl-2H-chromen-6-yl)methyl)-3,4-dimethoxy-N-phenylbenzenesulfonamide, reference compound]
IC50 (n=26, read-out: IC50): 0.7 ± 0.4 µM

Second part, the compound after the results:

IC50 [1]: 6.4 µM
Compound: CCCS(=O)(=O)N(Cc1ccc2c(n1)C=CC(C)(C)O2)c1ccccc1 [Compound 26o, N-((2,2-Dimethyl-2H-pyrano[3,2-b]pyridin-6-yl)methyl)-N-phenylpropane-1-sulfonamide]

IC50 [1]: 0.9 µM
Compound: CC(C)CS(=O)(=O)N(Cc1ccc2c(n1)C=CC(C)(C)O2)c1ccccc1 [Compound 26p, N-((2,2-Dimethyl-2H-pyrano[3,2-b]pyridin-6-yl)methyl)-2-methyl-N-phenylpropane-1-sulfonamide]

IC50 [1]: 3.4 µM
Compound: CC1(C)C=Cc2nc(CN(c3ccccc3)S(=O)(=O)c3ccc(-c4ccccc4)cc3)ccc2O1 [Compound 26q, N-((2,2-Dimethyl-2H-pyrano[3,2-b]pyridin-6-yl)methyl)-N-phenylbiphenyl-4-sulfonamide]

IC50 [1]: 0.9 µM | IC50 (24 h, 24 h, read-out: IC50): 0.9 µM
Compound: CC1(C)C=Cc2nc(CN(c3ccccc3)S(=O)(=O)c3cccc4cccnc34)ccc2O1 [Compound 26s, N-((2,2-Dimethyl-2H-pyrano[3,2-b]pyridin-6-yl)methyl)-N-phenylquinoline-8-sulfonamide]

IC50 [1]: 0.9 µM
Compound: CC1(C)C=Cc2nc(CN(c3ccccc3)S(=O)(=O)c3ccc4c(c3)OCCO4)ccc2O1 [Compound 26t, N-((2,2-dimethyl-2H-pyrano[3,2-b]pyridin-6-yl)methyl)-N-phenyl-2,3-dihydrobenzo[b][1,4]dioxine-6-sulfonamide]

IC50 (24 h, Table 9, 24 h, results from single runs, read-out: IC50): 1.4 µM | IC50 (24 h, 24 h, read-out: IC50): 1.42 µM
Compound: COc1ccc(S(=O)(=O)N(Cc2cc3c(cn2)OC(C)(C)C=C3)c2ccccc2)cc1 [Compound 36a, N-((2,2-Dimethyl-2H-pyrano[2,3-c]pyridin-6-yl)methyl)-4-methoxy-N-phenylbenzenesulfonamide]

— patent US9062072B2, “Inhibitors of HIF and angiogenesis” (Emory University, priority 2010, dated 2015)
